In patent US5356898A, “Substituted 4,6-di-tertiary-butyl 5-hydroxy-pyrimidines” (Warner-Lambert Company, priority 1993, dated 1994):

Tests used:
5-lipoxygenase = experiment: ARBL whole cell 5-lipoxygenase assay (LTB4 formation in RBL-1 cells, RIA); type: cell-based, rat; settings: @ 10 μM; inhibition of LTB4 formation, RBL-1 cells stimulated with calcium ionophore A23187
Method: (§1) ARBL/ARBC Whole Cell 5-Lipoxygenase and Cyclooxygenase Assays The rat basophilic leukemia cell line (RBL-1) was obtained from the American Type Culture Collection (Rockville, Md.). Radioimmunoassay (RIA) kits of LTB4 and PGF2.sbsb.α were obtained from Amersham (Arlington Heights, Ill.) and Seragen (Boston, Mass.), respectively. RBL-1 cells are grown in suspension culture in Eagle's minimum essential medium supplemented with 12% fetal bovine serum at 37° C. in an incubator supplied with air-5% carbon dioxide. Cells are harvested by centrifugation. They are washed with cold phosphate buffered saline pH 7.4 (PBS; NaCl, 7.1 g; Na2 HPO4, 1.15 g; KH2 PO4, 0.2 g; and KCl, 0.2 g/l). Cells are finally suspended in PBS containing 1.0 mM calcium at a density of 2×10^6 cells/mi. Cells are incubated with and without test agent (in DMSO) (1% DMSO is without effect on arachidonic acid metabolism) for ten minutes at room temperature. Calcium ionophore A23187 (5 μM) is added and cells are incubated for seven minutes at 37° C. The reaction is stopped by chilling the tubes on ice for ten minutes. Cells are separated by centrifugation and the supernatant is stored at -20° Aliquots (100 μl) are analyzed for LTB4 and PGF2.sbsb.α using radioimmunoassay kits as provided by the supplier. […]

cyclooxygenase = experiment: ARBC whole cell cyclooxygenase assay (PGF2α formation in RBL-1 cells, RIA); type: cell-based, rat; settings: @ 10 μM; inhibition of PGF2α formation, RBL-1 cells stimulated with calcium ionophore A23187
Method: as §1

| Compound | ARBL (5-lipoxygenase) [%] | ARBC (cyclooxygenase) [%] |
| --- | --- | --- |
| CSc1nnc(-c2nc(C(C)(C)C)c(O)c(C(C)(C)C)n2)s1 [Example 13, 5-[4,6-Bis(1,1-dimethylethyl)-5-hydroxy-2-pyrimidinyl]-2-thiomethoxy-1,3,4-3H-thiadiazole] | 93 | 85 |
| CC(C)(C)c1nc(C#N)nc(C(C)(C)C)c1O [Example 19, 4,6-Bis.(1,1-dimethylethyl)-5-hydroxy-2-pyrimidine carbonitrile] | 70 | 45 |
